We go through nine test systems from the supplement of paper PMC6045584.

Compound in one assay: CC1(C)CC(=O)c2c(C(F)(F)F)nn(-c3ccc(C(N)=O)c(N[C@H]4CC[C@H](OC(=O)CN)CC4)c3)c2C1 [SNX-5422]
The assay can be described thus: surviving fraction relative to DMSO-only wells; higher = less growth inhibition. To be noted: exposure time: 5 days. An outline of the steps:
(§1)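 At 250–500 cells per well in 384-well plates, log-phase tumour cell lines were seeded and, 24 hours on, exposed continuously for five days to inhibitors at 0.5, 1, 5, 10, 50, 100, 500 and 1000 nM. Viability readout was CellTiter-Glo luminescence, reported as surviving fraction normalised to the median of DMSO-only wells.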

Compound in another assay: CNC(=O)c1ccc(N2C(=S)N(c3ccc(C#N)c(C(F)(F)F)c3)C(=O)C2(C)C)cc1F [MDV3100]
The description is as above. To be noted: exposure time: 5 days. An outline of the steps:
as §1

± gives the standard deviation of the averaged measurements.

ZR751 BREAST: the surviving fraction with SNX-5422 (0.5 nM) is 1.04 ± 0.12; in the assay with SNX-5422 (1 nM), 1.45 ± 0.57; in the assay with SNX-5422 (5 nM), 1.08 ± 0.11; with SNX-5422 (10 nM), 1.34 ± 0.18; in the assay with SNX-5422 (50 nM) it was 0.652 ± 0.071; with SNX-5422 (100 nM), 0.513 ± 0.036. Also, the surviving fraction was found to be 0.218 ± 0.024 with SNX-5422 (500 nM); 0.217 ± 0.017 in the assay with SNX-5422 (1000 nM); 1.12 ± 0.16 with MDV3100 (0.5 nM); 1.14 ± 0.1 with MDV3100 (1 nM); 1.04 ± 0.042 with MDV3100 (5 nM); 1.04 ± 0.043 with MDV3100 (10 nM). For the same test system, the surviving fraction amounted to 1.17 ± 0.1 in the assay with MDV3100 (50 nM), 1.12 ± 0.076 with MDV3100 (100 nM), 1.22 ± 0.1 in the assay with MDV3100 (500 nM) and 1.08 ± 0.079 with MDV3100 (1000 nM).
Consider DU4475 BREAST, for which the surviving fraction with SNX-5422 (0.5 nM) came out at 1.07 ± 0.29; with SNX-5422 (1 nM), 0.979 ± 0.18; with SNX-5422 (5 nM) it was 1.04 ± 0.17; with SNX-5422 (10 nM), 1.06 ± 0.26; with SNX-5422 (50 nM), 0.03 ± 0.013; with SNX-5422 (100 nM) it was 0.0313 ± 0.0065. Besides, the surviving fraction in the assay with SNX-5422 (500 nM) stood at 0.029 ± 0.0052; with SNX-5422 (1000 nM), 0.0317 ± 0.0072; with MDV3100 (0.5 nM), 0.806 ± 0.11; with MDV3100 (1 nM), 0.938 ± 0.086; with MDV3100 (5 nM) it was 0.832 ± 0.098; in the assay with MDV3100 (10 nM), 0.992 ± 0.052. Moreover, the surviving fraction in the assay with MDV3100 (50 nM) was 0.958 ± 0.074; in the assay with MDV3100 (100 nM) it was 0.907 ± 0.089; with MDV3100 (500 nM), 0.965 ± 0.11; with MDV3100 (1000 nM), 0.933 ± 0.046.
Take SYO1 SYNOVIAL: the surviving fraction was 1.03 ± 0.031 in the assay with SNX-5422 (0.5 nM); 0.993 ± 0.089 with SNX-5422 (1 nM); 1.02 ± 0.016 in the assay with SNX-5422 (5 nM); 0.846 ± 0.059 with SNX-5422 (10 nM); 0.122 ± 0.049 in the assay with SNX-5422 (50 nM); 0.0776 ± 0.021 in the assay with SNX-5422 (100 nM). Also, the surviving fraction with SNX-5422 (500 nM) is 0.0327 ± 0.0032; with SNX-5422 (1000 nM) it was 0.0335 ± 0.0013; in the assay with MDV3100 (0.5 nM), 0.989 ± 0.036; in the assay with MDV3100 (1 nM), 0.883 ± 0.051; with MDV3100 (5 nM), 0.946 ± 0.018; with MDV3100 (10 nM) it was 0.546 ± 0.027. The surviving fraction came out at 0.91 ± 0.023 with MDV3100 (50 nM), 0.914 ± 0.032 with MDV3100 (100 nM), 0.987 ± 0.05 with MDV3100 (500 nM) and 0.653 ± 0.023 in the assay with MDV3100 (1000 nM).
JIMT1 BREAST: the surviving fraction with SNX-5422 (0.5 nM) turned out to be 0.994 ± 0.017; in the assay with SNX-5422 (1 nM), 0.973 ± 0.032; with SNX-5422 (5 nM), 1.01 ± 0.026; in the assay with SNX-5422 (10 nM) it was 1.01 ± 0.015; with SNX-5422 (50 nM), 0.792 ± 0.0081; with SNX-5422 (100 nM), 0.271 ± 0.029. Further, the surviving fraction in the assay with SNX-5422 (500 nM) was 0.0693 ± 0.0067; in the assay with SNX-5422 (1000 nM) it was 0.0723 ± 0.0026; with MDV3100 (0.5 nM), 0.964 ± 0.025; with MDV3100 (1 nM), 0.9673 ± 0.007; with MDV3100 (5 nM), 1.01 ± 0.02; in the assay with MDV3100 (10 nM) it was 0.983 ± 0.02. In addition, the surviving fraction in the assay with MDV3100 (50 nM) came to 1.04 ± 0.048; in the assay with MDV3100 (100 nM), 1.07 ± 0.076; with MDV3100 (500 nM) it was 1.05 ± 0.055; with MDV3100 (1000 nM), 0.982 ± 0.025.
As for HS57T BREAST, the surviving fraction in the assay with SNX-5422 (0.5 nM) came to 1.1 ± 0.014; with SNX-5422 (1 nM) it was 1.09 ± 0.046; with SNX-5422 (5 nM), 1.15 ± 0.034; with SNX-5422 (10 nM), 1.13 ± 0.034; in the assay with SNX-5422 (50 nM), 0.215 ± 0.011; with SNX-5422 (100 nM), 0.22 ± 0.016. The surviving fraction with SNX-5422 (500 nM) was 0.127 ± 0.0093; in the assay with SNX-5422 (1000 nM), 0.126 ± 0.0052; with MDV3100 (0.5 nM), 0.866 ± 0.091; with MDV3100 (1 nM), 0.918 ± 0.032; in the assay with MDV3100 (5 nM) it was 0.963 ± 0.033; in the assay with MDV3100 (10 nM) it was 0.947 ± 0.12. Moreover, the surviving fraction came to 0.847 ± 0.069 with MDV3100 (50 nM), 0.955 ± 0.043 with MDV3100 (100 nM), 0.923 ± 0.068 in the assay with MDV3100 (500 nM) and 0.912 ± 0.041 with MDV3100 (1000 nM).
For the test system HCC1806 BREAST, the surviving fraction was 1.15 ± 0.15 with SNX-5422 (0.5 nM); 1.04 ± 0.064 with SNX-5422 (1 nM); 1.12 ± 0.012 in the assay with SNX-5422 (5 nM); 1.07 ± 0.07 with SNX-5422 (10 nM); 0.05 ± 0.0085 with SNX-5422 (50 nM); 0.03 ± 0.001 with SNX-5422 (100 nM). Further, the surviving fraction turned out to be 0.029 with SNX-5422 (500 nM); 0.035 ± 0.001 with SNX-5422 (1000 nM); 1.01 ± 0.032 with MDV3100 (0.5 nM); 1.07 ± 0.067 in the assay with MDV3100 (1 nM); 1.13 ± 0.045 with MDV3100 (5 nM); 0.993 ± 0.074 with MDV3100 (10 nM). The surviving fraction was determined as 1.14 ± 0.045 with MDV3100 (50 nM), 1.12 ± 0.049 in the assay with MDV3100 (100 nM), 1.04 ± 0.051 with MDV3100 (500 nM) and 1.03 ± 0.06 in the assay with MDV3100 (1000 nM).
Consider HOS BONE, for which the surviving fraction with SNX-5422 (0.5 nM) was 1.01 ± 0.015; with SNX-5422 (1 nM), 1.04 ± 0.039; in the assay with SNX-5422 (5 nM) it was 1.08 ± 0.016; with SNX-5422 (10 nM), 1.04 ± 0.031; in the assay with SNX-5422 (50 nM) it was 0.028 ± 0.001; in the assay with SNX-5422 (100 nM), 0.051 ± 0.0078. Besides, the surviving fraction with SNX-5422 (500 nM) was found to be 0.0377 ± 0.0011; with SNX-5422 (1000 nM) it was 0.0417 ± 0.0021; with MDV3100 (0.5 nM), 1.007 ± 0.0093; with MDV3100 (1 nM), 0.9937 ± 0.0011; with MDV3100 (5 nM), 1.01 ± 0.017; with MDV3100 (10 nM) it was 0.982 ± 0.0062. Besides, the surviving fraction came out at 1.05 ± 0.022 with MDV3100 (50 nM), 1.05 ± 0.021 in the assay with MDV3100 (100 nM), 1.05 ± 0.017 with MDV3100 (500 nM) and 1.015 ± 0.0067 in the assay with MDV3100 (1000 nM).
With HCC1395 BREAST, the surviving fraction was 0.865 ± 0.17 with SNX-5422 (0.5 nM); 0.862 ± 0.071 in the assay with SNX-5422 (1 nM); 0.943 ± 0.15 with SNX-5422 (5 nM); 1.16 ± 0.23 in the assay with SNX-5422 (10 nM); 0.975 ± 0.15 in the assay with SNX-5422 (50 nM); 1.15 ± 0.066 with SNX-5422 (100 nM). The surviving fraction with SNX-5422 (500 nM) amounted to 0.818 ± 0.1; with SNX-5422 (1000 nM) it was 0.893 ± 0.05; with MDV3100 (0.5 nM) it was 1.18 ± 0.027; with MDV3100 (1 nM), 1.14 ± 0.089; with MDV3100 (5 nM) it was 1.24 ± 0.075; with MDV3100 (10 nM), 1.08 ± 0.19. In addition, the surviving fraction with MDV3100 (50 nM) is 1.18 ± 0.15; with MDV3100 (100 nM) it was 1.1 ± 0.15; with MDV3100 (500 nM) it was 1.18 ± 0.16; with MDV3100 (1000 nM), 1.16 ± 0.024.
As for NOS1 BONE, the surviving fraction with SNX-5422 (0.5 nM) was 1.1 ± 0.11; with SNX-5422 (1 nM), 1.08 ± 0.052; with SNX-5422 (5 nM), 1.16 ± 0.067; in the assay with SNX-5422 (10 nM), 0.947 ± 0.056; in the assay with SNX-5422 (50 nM), 0.451 ± 0.037; with SNX-5422 (100 nM), 0.276 ± 0.012. Further, the surviving fraction worked out at 0.113 ± 0.0076 with SNX-5422 (500 nM); 0.117 ± 0.014 in the assay with SNX-5422 (1000 nM); 1.18 ± 0.11 with MDV3100 (0.5 nM); 1 ± 0.043 in the assay with MDV3100 (1 nM); 1.11 ± 0.069 with MDV3100 (5 nM); 1.1 ± 0.2 in the assay with MDV3100 (10 nM). In addition, the surviving fraction with MDV3100 (50 nM) was 1.04 ± 0.062; in the assay with MDV3100 (100 nM), 1.16 ± 0.086; with MDV3100 (500 nM), 0.972 ± 0.073; with MDV3100 (1000 nM), 1.03 ± 0.027.
